From patent USRE48461E1, “Modulation of androgen receptor expression” (Ionis Pharmaceuticals, Inc., priority 2012, dated 2021)

What was measured:
Format in all cases: cell-based, human
[1] = tested on: prostate-specific antigen (PSA) mRNA; test: Time-course PSA expression in C4-2B cells
Outline: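 C4-2B cells at 1,000/well in complete medium, treated with antisense oligonucleotide; ISIS 549148 as negative control. PSA and TMPRSS2 mRNA measured after 8, 24 and 48 h, given as percent inhibition relative to non-treated cells.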

TMPRSS2 mRNA = test: TMPRSS2 expression in C4-2B cells (Example 30); conditions: 48 hrs
Outline: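 C4-2B cells were plated at 1,000 cells per well in complete medium, or at 2,000 cells per well in CSS medium with 1 nM DHT. ISIS 549148 served as the negative control. AR, PSA and TMPRSS2 RNA levels were measured after 48 hrs.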

VCaP cells = test: VCaP apoptosis (Caspase-Glo 3/7); conditions: complete medium, 72 hours; for Apoptosis (% untreated control): VCaP cells
Experimental: After a treatment period of 72 hours in complete medium, apoptosis of the cancer cells was measured with Caspase-Glo 3/7 assay (Promega). Results are presented in Tables 117 and 118 as percent apoptosis of the cells, relative to non-treated cells.

AR V7 variant mRNA = test: AR V7 variant RNA in VCaP cells; conditions: RNAiMax, 48 hrs
PSA mRNA = test: PSA expression in 22RV1 cells; conditions: RNAiMax, 48 hrs
Outline: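 In 22RV1 cells, full-length AR, AR-V7, PSA and TMPRSS2 RNA measured after 48 h compound incubation. Complete-medium format used 1,000 cells/well; CSS+DHT format used 2,000 cells/well cultured 16 h in CSS medium, with 1 nM DHT added after 4 h.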

C4-2B cells = test: C4-2B cell proliferation, ASO in combination with MDV3100 (Example 21); conditions: for Proliferation (% untreated control) in C4-2B without MDV-3100: 5 days
Experimental: C4-2B cells were plated at 1,000 cells per well. […] ISIS 549148 was included as a negative control. […] After a treatment period of 5 days, the proliferative capacity of the cancer cells was measured with CellTiter 96® AQueous One Solution Cell Proliferation kit (Promega), following the manufacturer's instructions. […]

cleaved PARP = test: Cleaved PARP western blot in VCaP cells
AR mRNA = test: AR RNA expression in C4-2 cells (complete, CSS+DHT medium); conditions: 48 hrs; for Percent expression of AR: C4-2 cells, CSS + DHT medium
Experimental: Cells were plated at 1,000 cells per well. […] After an incubation period of 48 hrs, RNA levels of AR, PSA and TMPRSS2 were measured.
Cells were plated at 2,000 cells per well and cultured in CSS media with 1 nM DHT. […] After an incubation period of 48 hrs, RNA levels of AR, PSA and TMPRSS2 were measured.

TTGATTTAATGGTTGC [ISIS 560131] (MOE and (S)-cEt gapmer chemistry, further chemistry not given here) [targets intron 1]
Percent inhibition of PSA expression compared to the control group in 8 hours ([1]; 0.04 μM): 12% | Percent inhibition of PSA expression compared to the control group in 24 hours ([1]; 0.04 μM): 27% | Percent inhibition of PSA expression compared to the control group in 48 hours ([1]; 0.04 μM): 20% | Percent inhibition of PSA expression compared to the control group in 8 hours ([1]; 0.2 μM): 0% | Percent inhibition of PSA expression compared to the control group in 24 hours ([1]; 0.2 μM): 46% | Percent inhibition of PSA expression compared to the control group in 48 hours ([1]; 0.2 μM): 61% | Percent inhibition of PSA expression compared to the control group in 8 hours ([1]; 1 μM): 3% | Percent inhibition of PSA expression compared to the control group in 24 hours ([1]; 1 μM): 56% | Percent inhibition of PSA expression compared to the control group in 48 hours ([1]; 1 μM): 71% | Percent inhibition of PSA expression compared to the control group in 8 hours ([1]; 5.0 μM): 1% | Percent inhibition of PSA expression compared to the control group in 24 hours ([1]; 5.0 μM): 60% | Percent inhibition of PSA expression compared to the control group in 48 hours ([1]; 5.0 μM): 80% | PSA expression ([1]; time course): reduced PSA and TMPRSS2 expression in the cells relative to the control set at the 24 hr and 48 hr time points | Percent inhibition of TMPRSS2 expression (TMPRSS2 mRNA; CSS + DHT medium, 0.04 μM): 0% | Percent inhibition of TMPRSS2 expression (TMPRSS2 mRNA; CSS + DHT medium, 0.2 μM): 34% | Percent inhibition of TMPRSS2 expression (TMPRSS2 mRNA; CSS + DHT medium, 1 μM): 60% | Percent inhibition of TMPRSS2 expression (TMPRSS2 mRNA; CSS + DHT medium, 5.0 μM): 76% | Percent inhibition of TMPRSS2 expression (TMPRSS2 mRNA; complete medium, 0.04 μM): 46% | Percent inhibition of TMPRSS2 expression (TMPRSS2 mRNA; complete medium, 0.2 μM): 71% | Percent inhibition of TMPRSS2 expression (TMPRSS2 mRNA; complete medium, 1 μM): 72% | Percent inhibition of TMPRSS2 expression (TMPRSS2 mRNA; complete medium, 5.0 μM): 75% | Apoptosis (% untreated control) (VCaP cells; 1.34 nM): 189 % untreated control | Apoptosis (% untreated control) (VCaP cells; 4.0 nM): 253 % untreated control | Apoptosis (% untreated control) (VCaP cells; 13.4 nM): 356 % untreated control | Apoptosis (% untreated control) (VCaP cells; 40 nM): 262 % untreated control | apoptosis of VCaP cells (VCaP cells): increased apoptosis of the cells in a dose dependent compared to the control | Percent inhibition of AR V7 variant (AR V7 variant mRNA; CSS + DHT medium, 1.34 nM): 27% | Percent inhibition of AR V7 variant (AR V7 variant mRNA; CSS + DHT medium, 4.0 nM): 31% | Percent inhibition of AR V7 variant (AR V7 variant mRNA; CSS + DHT medium, 13.4 nM): 39% | Percent inhibition of AR V7 variant (AR V7 variant mRNA; CSS + DHT medium, 40 nM): 41% | Percent inhibition of AR V7 variant (AR V7 variant mRNA; complete medium, 1.34 nM): 0% | Percent inhibition of AR V7 variant (AR V7 variant mRNA; complete medium, 4.0 nM): 57% | Percent inhibition of AR V7 variant (AR V7 variant mRNA; complete medium, 13.4 nM): 78% | Percent inhibition of AR V7 variant (AR V7 variant mRNA; complete medium, 40 nM): 84% | Percent inhibition of PSA expression (PSA mRNA; CSS + DHT medium, 1.34 nM): 3% | Percent inhibition of PSA expression (PSA mRNA; CSS + DHT medium, 4.0 nM): 50% | Percent inhibition of PSA expression (PSA mRNA; CSS + DHT medium, 13.4 nM): 66% | Percent inhibition of PSA expression (PSA mRNA; complete medium, 1.34 nM): 10% | Percent inhibition of PSA expression (PSA mRNA; complete medium, 4.0 nM): 20% | Percent inhibition of PSA expression (PSA mRNA; complete medium, 13.4 nM): 27% | Percent inhibition of PSA expression (PSA mRNA; complete medium, 40 nM): 36% | Proliferation (% untreated control) in C4-2B with 0.08 μM MDV-3100 (C4-2B cells; ASO dose 0.04 μM + 0.08 μM MDV-3100): 73 % untreated control | Proliferation (% untreated control) in C4-2B with 0.4 μM MDV-3100 (C4-2B cells; ASO dose 0.04 μM + 0.4 μM MDV-3100): 69 % untreated control | Proliferation (% untreated control) in C4-2B with 2.0 μM MDV-3100 (C4-2B cells; ASO dose 0.04 μM + 2.0 μM MDV-3100): 42 % untreated control | Proliferation (% untreated control) in C4-2B with […] MDV-3100 (C4-2B cells; ASO dose 0.04 μM + […] MDV-3100): 71 % untreated control | Proliferation (% untreated control) in C4-2B without MDV-3100 (C4-2B cells; ASO dose 0.04 μM): 59 % untreated control | Proliferation (% untreated control) in C4-2B with 0.08 μM MDV-3100 (C4-2B cells; ASO dose 0.08 μM + 0.08 μM MDV-3100): 66 % untreated control | Proliferation (% untreated control) in C4-2B with 0.4 μM MDV-3100 (C4-2B cells; ASO dose 0.08 μM + 0.4 μM MDV-3100): 69 % untreated control | Proliferation (% untreated control) in C4-2B with 2.0 μM MDV-3100 (C4-2B cells; ASO dose 0.08 μM + 2.0 μM MDV-3100): 37 % untreated control | Proliferation (% untreated control) in C4-2B with […] MDV-3100 (C4-2B cells; ASO dose 0.08 μM + […] MDV-3100): 104 % untreated control | Proliferation (% untreated control) in C4-2B without MDV-3100 (C4-2B cells; ASO dose 0.08 μM): 84 % untreated control | Proliferation (% untreated control) in C4-2B with 0.08 μM MDV-3100 (C4-2B cells; ASO dose 0.2 μM + 0.08 μM MDV-3100): 56 % untreated control | Proliferation (% untreated control) in C4-2B with 0.4 μM MDV-3100 (C4-2B cells; ASO dose 0.2 μM + 0.4 μM MDV-3100): 48 % untreated control | Proliferation (% untreated control) in C4-2B with 2.0 μM MDV-3100 (C4-2B cells; ASO dose 0.2 μM + 2.0 μM MDV-3100): 49 % untreated control | Proliferation (% untreated control) in C4-2B with […] MDV-3100 (C4-2B cells; ASO dose 0.2 μM + […] MDV-3100): 53 % untreated control | Proliferation (% untreated control) in C4-2B without MDV-3100 (C4-2B cells; ASO dose 0.2 μM): 47 % untreated control | Proliferation (% untreated control) in C4-2B with 0.08 μM MDV-3100 (C4-2B cells; ASO dose 1.0 μM + 0.08 μM MDV-3100): 42 % untreated control | Proliferation (% untreated control) in C4-2B with 0.4 μM MDV-3100 (C4-2B cells; ASO dose 1.0 μM + 0.4 μM MDV-3100): 48 % untreated control | Proliferation (% untreated control) in C4-2B with 2.0 μM MDV-3100 (C4-2B cells; ASO dose 1.0 μM + 2.0 μM MDV-3100): 43 % untreated control | Proliferation (% untreated control) in C4-2B with […] MDV-3100 (C4-2B cells; ASO dose 1.0 μM + […] MDV-3100): 39 % untreated control | Proliferation (% untreated control) in C4-2B without MDV-3100 (C4-2B cells; ASO dose 1.0 μM): 41 % untreated control | synergy with MDV3100 (C4-2B cells; C4-2B cells): synergistic with MDV3100 | cell proliferation inhibited, combination (C4-2B cells; C4-2B cells, 0.08 μM ASO in combination with 0.4 μM MDV3100): 31% | inhibited cell proliferation, ASO alone (C4-2B cells; C4-2B cells, ASO alone at 0.08 μM): 16% | cleaved PARP levels (western blot) (cleaved PARP): increased in a dose-dependent manner | Percent expression of AR (AR mRNA; 0.04 μM): 88% | Percent expression of AR (AR mRNA; 0.2 μM): 57% | Percent expression of AR (AR mRNA; 1 μM): 20% | Percent expression of AR (AR mRNA; 5.0 μM): 15% | Percent expression of AR in C4-2 cells cultured in complete medium (AR mRNA; 0.04 μM): 48% | Percent expression of AR in C4-2 cells cultured in complete medium (AR mRNA; 0.2 μM): 13% | Percent expression of AR in C4-2 cells cultured in complete medium (AR mRNA; 1 μM): 8% | Percent expression of AR in C4-2 cells cultured in complete medium (AR mRNA; 5.0 μM): 8%
